Reference: patent US11945822B2, “Pyrazolo-triazine and/or pyrazolo-pxrimidine derivatives as selective inhibitor of cyclin dependent kinase” (QURIENT CO., LTD., priority 2018, dated 2024)

Biological target: T1, CDK5/p25 (Homo sapiens, UniProt Q00535)
T1 construct: purchased Invitrogen PR8543B
Test: Enzymatic assay for CDK5 (FRET based LANCE Ultra kinase assay)
Format: biochemical
Conditions: read-out: CDK5 enzymatic activity (IC50 range)
In short: (§1)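 Each CDK complex ([…]) phosphorylated 68 nM ULight-MBP peptide with ATP at Km for 60 min at 23° C., against 8 compound doses (4-fold dilutions). EDTA/Eu-anti-phospho-MBP detection, 60 min, then TR-FRET emission at 615 and 665 nm.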

T1 sequence (Q00535 whole entry): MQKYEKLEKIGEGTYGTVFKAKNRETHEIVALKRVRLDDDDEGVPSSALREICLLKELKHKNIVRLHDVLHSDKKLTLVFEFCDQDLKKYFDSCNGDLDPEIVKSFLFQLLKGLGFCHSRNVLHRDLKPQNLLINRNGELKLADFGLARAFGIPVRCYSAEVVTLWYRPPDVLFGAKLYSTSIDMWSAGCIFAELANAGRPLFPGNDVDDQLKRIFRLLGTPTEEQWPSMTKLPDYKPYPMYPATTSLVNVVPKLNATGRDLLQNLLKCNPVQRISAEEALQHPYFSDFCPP
T1 sequence (Q15078 99-307 partner limits assumed): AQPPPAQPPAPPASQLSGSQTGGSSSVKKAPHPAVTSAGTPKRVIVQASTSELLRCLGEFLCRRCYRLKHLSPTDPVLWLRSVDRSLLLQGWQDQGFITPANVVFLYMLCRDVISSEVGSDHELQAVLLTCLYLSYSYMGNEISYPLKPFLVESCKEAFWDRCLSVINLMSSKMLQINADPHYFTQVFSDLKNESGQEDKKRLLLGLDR

IC50 | SMILES
100 to 1000 nM | CC(C)c1cnn2c(NCc3c(Cl)cccc3-c3ccn(C4CCNCC4)n3)nc(N3CCC(N)CC3)nc12 [Compound 195]
100 to 1000 nM | CC(C)c1cnn2c(NCc3c(Cl)cccc3-n3ccc(C(=O)NC4CCNCC4)n3)nc(N3CCC(N)CC3)nc12 [Compound 196]
100 to 1000 nM | CNC(=O)c1ccn(-c2cccc(Cl)c2CNc2nc(N3CCC(N)CC3)nc3c(C(C)C)cnn23)n1 [Compound 197]
100 to 1000 nM | CC(C)c1cnn2c(NCc3c(Cl)cccc3-n3ccc(C(=O)N4CCNCC4)n3)nc(N3CCC(N)CC3)nc12 [Compound 198]

System: H460
Test: Cellular H460 viability assay (CellTiter-Glo, 72 hours)
Format: cell-based
Conditions: Homo sapiens, NCI-H460
In short: (§2)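 Cells plated in 96 wells and exposed to compound 72 h at 37 °C, 5% CO2, final DMSO below 0.1%, DMSO control. Viability by CellTiter-Glo luminescence, duplicate.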

IC50 | SMILES
< 1000 nM | CC(C)c1cnn2c(NCc3c(Cl)cccc3-c3ccn(C4CCNCC4)n3)nc(N3CCC(N)CC3)nc12 [Compound 195]
1000 to 10000 nM | CC(C)c1cnn2c(NCc3c(Cl)cccc3-n3ccc(C(=O)NC4CCNCC4)n3)nc(N3CCC(N)CC3)nc12 [Compound 196]
< 1000 nM | CNC(=O)c1ccn(-c2cccc(Cl)c2CNc2nc(N3CCC(N)CC3)nc3c(C(C)C)cnn23)n1 [Compound 197]
1000 to 10000 nM | CC(C)c1cnn2c(NCc3c(Cl)cccc3-n3ccc(C(=O)N4CCNCC4)n3)nc(N3CCC(N)CC3)nc12 [Compound 198]

Biological target: T2, CDK1/Cyclin B (Homo sapiens, UniProt P06493)
T2 construct: purchased Invitrogen PR4768C
T2 sequence (P06493 whole entry): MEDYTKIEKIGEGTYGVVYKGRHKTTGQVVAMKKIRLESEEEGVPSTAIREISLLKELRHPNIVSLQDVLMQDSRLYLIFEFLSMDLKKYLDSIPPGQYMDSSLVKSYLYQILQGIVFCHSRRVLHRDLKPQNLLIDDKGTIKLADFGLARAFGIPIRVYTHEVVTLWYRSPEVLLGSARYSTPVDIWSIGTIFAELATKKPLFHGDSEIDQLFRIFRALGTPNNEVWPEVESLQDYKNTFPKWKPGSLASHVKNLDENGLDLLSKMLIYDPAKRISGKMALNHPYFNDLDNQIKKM
T2 sequence (P14635 whole entry partner): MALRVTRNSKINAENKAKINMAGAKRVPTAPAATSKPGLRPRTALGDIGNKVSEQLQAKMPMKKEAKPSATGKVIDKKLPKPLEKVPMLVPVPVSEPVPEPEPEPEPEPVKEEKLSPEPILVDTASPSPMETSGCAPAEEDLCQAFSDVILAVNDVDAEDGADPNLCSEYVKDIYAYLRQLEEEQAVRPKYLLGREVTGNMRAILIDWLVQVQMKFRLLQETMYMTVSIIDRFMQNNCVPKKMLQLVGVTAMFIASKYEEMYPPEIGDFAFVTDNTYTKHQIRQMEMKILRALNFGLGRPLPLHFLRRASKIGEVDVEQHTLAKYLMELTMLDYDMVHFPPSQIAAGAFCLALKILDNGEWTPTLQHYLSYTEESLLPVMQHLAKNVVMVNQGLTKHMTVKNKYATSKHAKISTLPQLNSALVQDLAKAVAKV
Test: Enzymatic assay for CDK1 (FRET based LANCE Ultra kinase assay)
Format: biochemical
Conditions: read-out: CDK1 enzymatic activity (IC50 range)
In short: as §1

IC50 | SMILES
> 1000 nM | CC(C)c1cnn2c(NCc3c(Cl)cccc3-c3ccn(C4CCNCC4)n3)nc(N3CCC(N)CC3)nc12 [Compound 195]
> 1000 nM | CC(C)c1cnn2c(NCc3c(Cl)cccc3-n3ccc(C(=O)NC4CCNCC4)n3)nc(N3CCC(N)CC3)nc12 [Compound 196]
> 1000 nM | CNC(=O)c1ccn(-c2cccc(Cl)c2CNc2nc(N3CCC(N)CC3)nc3c(C(C)C)cnn23)n1 [Compound 197]
> 1000 nM | CC(C)c1cnn2c(NCc3c(Cl)cccc3-n3ccc(C(=O)N4CCNCC4)n3)nc(N3CCC(N)CC3)nc12 [Compound 198]

System: MM.1S
Test: Cellular MM.1S viability assay (CellTiter-Glo, 72 hours)
Format: cell-based
Conditions: Homo sapiens, MM1.S
Text: Human T-cell acute lymphoblastic leukemia cell line, MOLT-4 (ATCC, Cat #CRL-1582), Human multiple myeloma cell line, RPMI-8226 (Invitrogen, Cat #22400-089) and MM.1S (ATCC, Cat #CRL-2974), NSCLC (Non-small cell lung cancer) cell line H460 (ATCC, Cat #HTB-177), Human colon colorectal carcinoma cell line HCT116 (ATCC, Cat #CCL-247), Human acute monocytic leukemia cell line MV4-11 (ATCC, Cat #CRL-9591), OVCAR-3 (ATCC, Cat #HTB-161) and A2780 (ECACC, Cat #93112519) were obtained from ATCC. Cells were grown in RPMI-1640 media (Invitrogen, Cat #22400-089) supplemented with 10% FBS (Invitrogen, Cat #10099141) and 1% penicillin/streptomycin (Invitrogen, Cat #15070063) and cultured at 37° C., 5% CO2 in a humidified chamber. All cell lines were routinely tested for mycoplasma.
The effect of the CDK7 inhibitor to inhibit the growth of target cancer cells was evaluated through the 72 hours time period of viability assay. Briefly, the candidate cell line ware plated in 96 well plate at the following density of cells respectively. 1×10^4 cells/well for MOLT-4, RPMI-8226, MV4-11 and MM.1S, 5×10^3 for H460, HCT116 and OVCAR-3 and IX 10^3 for A2780. After 24 hours, the cells were treated with various concentrations of the compound (ranging from 0.0015 uM to 10 uM). DMSO solvent without compound served as a control and final DMSO concentration less than 0.1%. After 72 hours of incubation at 37° C., 5% CO2 incubator, cells were analyzed for the viability using the CellTiter-Glo Luminescent Cell Viability Assay (Promega, Cat #G7570). All viability assays were performed in duplicate and Luminescence was read using an Envision (Perkin Elmer, USA). Data was analyzed using XLfit software.

IC50 | SMILES
≤ 1000 nM | CC(C)c1cnn2c(NCc3c(Cl)cccc3-c3ccn(C4CCNCC4)n3)nc(N3CCC(N)CC3)nc12 [Compound 195]
1000 to 10000 nM | CC(C)c1cnn2c(NCc3c(Cl)cccc3-n3ccc(C(=O)NC4CCNCC4)n3)nc(N3CCC(N)CC3)nc12 [Compound 196]
≤ 1000 nM | CNC(=O)c1ccn(-c2cccc(Cl)c2CNc2nc(N3CCC(N)CC3)nc3c(C(C)C)cnn23)n1 [Compound 197]
≤ 1000 nM | CC(C)c1cnn2c(NCc3c(Cl)cccc3-n3ccc(C(=O)N4CCNCC4)n3)nc(N3CCC(N)CC3)nc12 [Compound 198]

Biological target: T3, CDK2/Cyclin A (Homo sapiens, UniProt P24941)
T3 construct: purchased Invitrogen PV6290
Test: Enzymatic assay for CDK2 (FRET based LANCE Ultra kinase assay)
Format: biochemical
Conditions: read-out: CDK2 enzymatic activity (IC50 range)
In short: as §1

IC50 | SMILES
> 1000 nM | CC(C)c1cnn2c(NCc3c(Cl)cccc3-c3ccn(C4CCNCC4)n3)nc(N3CCC(N)CC3)nc12 [Compound 195]
> 1000 nM | CC(C)c1cnn2c(NCc3c(Cl)cccc3-n3ccc(C(=O)NC4CCNCC4)n3)nc(N3CCC(N)CC3)nc12 [Compound 196]
> 1000 nM | CNC(=O)c1ccn(-c2cccc(Cl)c2CNc2nc(N3CCC(N)CC3)nc3c(C(C)C)cnn23)n1 [Compound 197]
> 1000 nM | CC(C)c1cnn2c(NCc3c(Cl)cccc3-n3ccc(C(=O)N4CCNCC4)n3)nc(N3CCC(N)CC3)nc12 [Compound 198]

Biological target: T4, CDK7/Cyclin H/MNAT1 (Homo sapiens, UniProt P50613)
T4 construct: purchased Invitrogen PR6749B
T4 sequence (P50613 whole entry): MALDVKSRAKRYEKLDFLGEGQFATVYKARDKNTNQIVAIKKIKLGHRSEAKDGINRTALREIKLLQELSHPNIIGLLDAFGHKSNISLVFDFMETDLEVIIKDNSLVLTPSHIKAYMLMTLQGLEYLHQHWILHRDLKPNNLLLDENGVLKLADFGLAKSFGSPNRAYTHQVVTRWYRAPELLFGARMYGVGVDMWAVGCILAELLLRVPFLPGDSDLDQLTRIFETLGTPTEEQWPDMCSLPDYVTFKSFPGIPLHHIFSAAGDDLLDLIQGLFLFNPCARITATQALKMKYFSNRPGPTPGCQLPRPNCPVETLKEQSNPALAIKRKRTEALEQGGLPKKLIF
T4 sequence (P51946 whole entry partner): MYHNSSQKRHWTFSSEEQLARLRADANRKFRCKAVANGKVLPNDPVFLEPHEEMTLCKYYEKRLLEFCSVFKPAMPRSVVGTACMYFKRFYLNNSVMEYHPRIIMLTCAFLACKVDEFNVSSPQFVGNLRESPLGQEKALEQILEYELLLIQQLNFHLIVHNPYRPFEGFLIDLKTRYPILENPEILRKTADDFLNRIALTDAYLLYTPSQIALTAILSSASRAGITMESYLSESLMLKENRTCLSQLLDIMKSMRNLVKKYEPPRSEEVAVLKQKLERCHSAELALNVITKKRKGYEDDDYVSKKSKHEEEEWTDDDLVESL
T4 sequence (P51948 whole entry partner): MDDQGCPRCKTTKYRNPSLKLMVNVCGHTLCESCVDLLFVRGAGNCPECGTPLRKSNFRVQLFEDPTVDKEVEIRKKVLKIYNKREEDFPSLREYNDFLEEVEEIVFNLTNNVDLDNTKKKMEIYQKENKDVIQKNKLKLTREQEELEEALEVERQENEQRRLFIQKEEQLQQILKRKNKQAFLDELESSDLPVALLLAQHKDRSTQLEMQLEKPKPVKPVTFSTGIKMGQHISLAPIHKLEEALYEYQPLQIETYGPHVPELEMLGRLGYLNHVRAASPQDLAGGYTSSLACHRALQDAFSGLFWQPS
Test: Enzymatic assay for CDK7 (FRET based LANCE Ultra kinase assay)
Format: biochemical
Conditions: CDK7 over CDK1
In short: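 LANCE Ultra TR-FRET kinase assay using a ULight-labeled peptide substrate and a Eu-labeled anti-phospho antibody, with ATP at its Km. Purified CDK/cyclin complex was added to compound after brief centrifugation.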

CDK1/CDK7: Selectivity of CDK7 inhibition over CDK1 inhibition | SMILES
A (A=greater than 200 fold) | CC(C)c1cnn2c(NCc3c(Cl)cccc3-c3ccn(C4CCNCC4)n3)nc(N3CCC(N)CC3)nc12 [Compound 195]
A (A=greater than 200 fold) | CC(C)c1cnn2c(NCc3c(Cl)cccc3-n3ccc(C(=O)NC4CCNCC4)n3)nc(N3CCC(N)CC3)nc12 [Compound 196]
A (A=greater than 200 fold) | CNC(=O)c1ccn(-c2cccc(Cl)c2CNc2nc(N3CCC(N)CC3)nc3c(C(C)C)cnn23)n1 [Compound 197]
A (A=greater than 200 fold) | CC(C)c1cnn2c(NCc3c(Cl)cccc3-n3ccc(C(=O)N4CCNCC4)n3)nc(N3CCC(N)CC3)nc12 [Compound 198]

Same assay, conditions: CDK7 over CDK2

CDK2/CDK7: Selectivity of CDK7 inhibition over CDK2 inhibition | SMILES
A (A=greater than 200 fold) | CC(C)c1cnn2c(NCc3c(Cl)cccc3-c3ccn(C4CCNCC4)n3)nc(N3CCC(N)CC3)nc12 [Compound 195]
A (A=greater than 200 fold) | CC(C)c1cnn2c(NCc3c(Cl)cccc3-n3ccc(C(=O)NC4CCNCC4)n3)nc(N3CCC(N)CC3)nc12 [Compound 196]
A (A=greater than 200 fold) | CNC(=O)c1ccn(-c2cccc(Cl)c2CNc2nc(N3CCC(N)CC3)nc3c(C(C)C)cnn23)n1 [Compound 197]
A (A=greater than 200 fold) | CC(C)c1cnn2c(NCc3c(Cl)cccc3-n3ccc(C(=O)N4CCNCC4)n3)nc(N3CCC(N)CC3)nc12 [Compound 198]

Same assay, conditions: CDK7 over CDK5

CDK5/CDK7: Selectivity of CDK7 inhibition over CDK5 inhibition | SMILES
A (A=greater than 200 fold) | CC(C)c1cnn2c(NCc3c(Cl)cccc3-c3ccn(C4CCNCC4)n3)nc(N3CCC(N)CC3)nc12 [Compound 195]
A (A=greater than 200 fold) | CC(C)c1cnn2c(NCc3c(Cl)cccc3-n3ccc(C(=O)NC4CCNCC4)n3)nc(N3CCC(N)CC3)nc12 [Compound 196]
A (A=greater than 200 fold) | CC(C)c1cnn2c(NCc3c(Cl)cccc3-n3ccc(C(=O)N4CCNCC4)n3)nc(N3CCC(N)CC3)nc12 [Compound 198]

SMILES | CDK5/CDK7: Selectivity of CDK7 inhibition over CDK5 inhibition
CNC(=O)c1ccn(-c2cccc(Cl)c2CNc2nc(N3CCC(N)CC3)nc3c(C(C)C)cnn23)n1 [Compound 197] | B (B=less than 200 fold, but greater than 20 fold)

Same assay, conditions: read-out: CDK7 enzymatic activity (IC50 range)

IC50 | SMILES
< 100 nM | CC(C)c1cnn2c(NCc3c(Cl)cccc3-c3ccn(C4CCNCC4)n3)nc(N3CCC(N)CC3)nc12 [Compound 195]
< 100 nM | CC(C)c1cnn2c(NCc3c(Cl)cccc3-n3ccc(C(=O)NC4CCNCC4)n3)nc(N3CCC(N)CC3)nc12 [Compound 196]
< 100 nM | CNC(=O)c1ccn(-c2cccc(Cl)c2CNc2nc(N3CCC(N)CC3)nc3c(C(C)C)cnn23)n1 [Compound 197]
< 100 nM | CC(C)c1cnn2c(NCc3c(Cl)cccc3-n3ccc(C(=O)N4CCNCC4)n3)nc(N3CCC(N)CC3)nc12 [Compound 198]

System: HCT116
Test: Cellular HCT116 viability assay (CellTiter-Glo, 72 hours)
Format: cell-based
Conditions: Homo sapiens, HCT-116
In short: as §2

IC50 | SMILES
< 1000 nM | CC(C)c1cnn2c(NCc3c(Cl)cccc3-c3ccn(C4CCNCC4)n3)nc(N3CCC(N)CC3)nc12 [Compound 195]
< 1000 nM | CC(C)c1cnn2c(NCc3c(Cl)cccc3-n3ccc(C(=O)NC4CCNCC4)n3)nc(N3CCC(N)CC3)nc12 [Compound 196]
< 1000 nM | CNC(=O)c1ccn(-c2cccc(Cl)c2CNc2nc(N3CCC(N)CC3)nc3c(C(C)C)cnn23)n1 [Compound 197]
< 1000 nM | CC(C)c1cnn2c(NCc3c(Cl)cccc3-n3ccc(C(=O)N4CCNCC4)n3)nc(N3CCC(N)CC3)nc12 [Compound 198]

System: MV4-11
Test: Cellular MV4-11 viability assay (CellTiter-Glo, 72 hours)
Format: cell-based
Conditions: Homo sapiens
In short: as §2

IC50 | SMILES
< 1000 nM | CC(C)c1cnn2c(NCc3c(Cl)cccc3-c3ccn(C4CCNCC4)n3)nc(N3CCC(N)CC3)nc12 [Compound 195]
< 1000 nM | CC(C)c1cnn2c(NCc3c(Cl)cccc3-n3ccc(C(=O)NC4CCNCC4)n3)nc(N3CCC(N)CC3)nc12 [Compound 196]
< 1000 nM | CNC(=O)c1ccn(-c2cccc(Cl)c2CNc2nc(N3CCC(N)CC3)nc3c(C(C)C)cnn23)n1 [Compound 197]
< 1000 nM | CC(C)c1cnn2c(NCc3c(Cl)cccc3-n3ccc(C(=O)N4CCNCC4)n3)nc(N3CCC(N)CC3)nc12 [Compound 198]
